Drawing on patent US10428028B2, “HDAC inhibitors” (BIOMARIN PHARMACEUTICAL INC., priority 2013, dated 2019), this text covers IC50 for 13 compounds.

As usually defined, the pIC50 is the IC50 on a negative log10 scale, so that one unit is a factor of ten. Read a low pIC50 as a high IC50.

pIC50: −log10 of the molar value.

The target of one experiment is HDAC3/NcoR2 (Homo sapiens (Human), UniProt O15379). In words: HDAC enzyme inhibition assay (Fluor-de-Lys), HDAC3/NcoR2. The format is biochemical. To be noted: HDAC3/NcoR2, 2 hours pre-incubation. The method, then:
The HDAC activity inhibition assay was performed as follows to determine the ability of a test compound to inhibit HDAC enzymatic activity. Serial dilutions of HDAC inhibitors were prepared in HDAC assay buffer (25 mM Tris/HCl, pH 8.0, 137 mM NaCl, 2.7 mM KCl, 1 mM MgCl2, pH 8) in 96-well assay plates (Fisher scientific, #07-200-309) and were pre-incubated for 2 hours at room temperature in the presence of 125 μg/ml BSA and purified HDAC1 (BPS Bioscience, San Diego, Calif., #50051), HDAC2 (BPS Bioscience, #50053), or HDAC3/NcoR2 (BPS Bioscience, #50003) at concentrations of 1.25, 1.32, and 0.167 μg/mL, respectively. Following pre-incubation, Fluor-de-Lys™ substrate (Enzo Life Sciences, Plymouth Meeting, Pa., BML-KI104-0050) was added to a final concentration of 10 μM and plates were further incubated for 30 minutes at room temperature. The enzymatic reaction was stopped by addition of Trichostatin A (Sigma-Aldrich, St Louis, Mo., #T8552, final concentration: 100 nM) and trypsin (MP Biomedicals, Solon, Ohio, #02101179) was added to reach a final concentration of 100 μg/mL. After a 15 minute incubation at room temperature, fluorescence was recorded using a Spectramax M2 fluorometer (Molecular Devices, Sunnyvale, Calif.) with excitation at 365 nm and emission at 460 nm. IC50 values were calculated by using a sigmoidal dose-response (variable slope) equation in GraphPad Prism® 5 for Windows (GraphPad Software, La Jolla, Calif.). Results for selected compounds in the HDAC activity inhibition assay are presented in Table 5 (IC50 ranges: IA>20 μM, A<1 μM, 1<B<5 μM, 5<C<10 μM, 10<D<20 μM, ND: not determined).

The test system of experiment [1] is GM 15850 (lymphoblastoid cells line) cells. In words: In-cell deacetylase inhibition assay (DAC assay). In kind it is cell-based. To be noted: Homo sapiens, GM15850; GM 15850 cells, 4 h incubation. The method, then:
GM 15850 (lymphoblastoid cells line) cells were seeded in 96-well plates at an appropriate density (100,000 cells/well) in 90 μL, RPMI1640 medium containing 10% v/v fetal bovine serum (FBS), 1% v/v penicillin/streptomycin, and 1% v/v L-glutamine. Compound dilutions were made in 100% DMSO followed by parallel dilution in media with 2% DMSO. 10 μl of the compound dilutions were added to the cells to achieve the desired concentrations. The final concentration of DMSO in each well was 0.2%. The cells were incubated for 4 h at 37° C. with 5% CO2. After incubation, the cells were centrifuged down and the supernatant was removed. The cell pellets were washed with 100 μL, phosphate-buffered saline (PBS) and then lysed with 45 μL, lysis buffer (HDAC assay buffer at pH 8.0 (25 mM Tris/HCl, 137 mM NaCl, 2.7 mM KCl, 1 mM MgCl2)+1% v/v Igepal CA-630). To initiate the reaction, the HDAC substrate KI-104 (Enzo Life Sciences, Farmingdale, N.Y.) was added to a final concentration of 50 μM. The reaction was stopped after 30 min incubation by addition of 50 μL, developer (6 mg/mL trypsin in HDAC assay buffer). The reaction was allowed to develop for 30 min at room temperature and the fluorescence signal was detected using a fluorometer (Spectramax M2, Molecular Devices, Sunnyvale, Calif.) with excitation and emission wavelengths of 360 nm and 470 nm respectively. The data was fitted to a sigmoidal dose response equation with variable slope in GraphPad Prism 5.0 (GraphPad Software, La Jolla, Calif.) to determine IC50. Bottom and top of the curve were fixed to the average fluorescence response of control wells with no cells and cells but no compound respectively. IC50's are reported in Table 5, where A stands for IC50 less than 1 μM, B between 1 and 5 μM, C from 5 to 10 μM, D from 10 to 20 μM, and IA for IC50 above 20 μM.

Sequence of HDAC3/NcoR2 (O15379 whole entry): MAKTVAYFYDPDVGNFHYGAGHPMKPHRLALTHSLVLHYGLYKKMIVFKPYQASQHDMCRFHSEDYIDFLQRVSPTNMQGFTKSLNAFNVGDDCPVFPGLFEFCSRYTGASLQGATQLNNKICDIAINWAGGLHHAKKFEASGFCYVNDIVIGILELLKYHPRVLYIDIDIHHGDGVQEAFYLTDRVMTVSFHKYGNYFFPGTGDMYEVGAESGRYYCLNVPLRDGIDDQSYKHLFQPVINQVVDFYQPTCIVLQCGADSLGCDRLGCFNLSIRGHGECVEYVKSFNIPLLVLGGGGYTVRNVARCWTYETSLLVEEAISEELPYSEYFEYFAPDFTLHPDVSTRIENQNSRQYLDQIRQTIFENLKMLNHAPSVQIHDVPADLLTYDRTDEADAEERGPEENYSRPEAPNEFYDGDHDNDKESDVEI
Sequence of HDAC3/NcoR2 (Q9Y618 395-489 partner): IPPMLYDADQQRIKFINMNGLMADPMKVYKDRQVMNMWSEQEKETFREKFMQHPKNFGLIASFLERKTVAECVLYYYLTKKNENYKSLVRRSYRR

Consider `Nc1ccccc1NC(=O)c1ccc2nn(Cc3cncc(F)c3)cc2c1` [Compound A14, N-(2-aminophenyl)-2-((5-fluoropyridin-3-yl)methyl)-2H-indazole-5-carboxamide], for which the pIC50 (on HDAC3/NcoR2; in experiment [1]) was greater than 6.00 throughout.

The compound `Nc1ccccc1NC(=O)c1ccc2c(cnn2Cc2ccc(F)c(F)c2)c1` [Compound A9] showed a pIC50 on HDAC3/NcoR2 greater than 6.00.

For the compound `Nc1ccccc1NC(=O)c1ccc2c(cnn2Cc2cccnc2)c1` [Compound A1], the pIC50 (at HDAC3/NcoR2; in experiment [1]) was greater than 6.00 in each case.

For the compound `Nc1cc(F)ccc1NC(=O)c1ccc2c(cnn2Cc2cncc(F)c2)c1` [Compound A7], the negative-log IC50 (pIC50) is greater than 6.00 against HDAC3/NcoR2 and 5.30 to 6.00 in experiment [1].

Regarding `Nc1cc(F)ccc1NC(=O)c1ccc2c(cnn2Cc2cccnc2)c1` [Compound A6], the figures for the pIC50 (at HDAC3/NcoR2; in experiment [1]) were greater than 6.00 and 5.30 to 6.00, respectively.

As to `Cn1cc(Cn2ncc3cc(C(=O)Nc4ccccc4N)ccc32)cn1` [Compound A3], the pIC50 (against HDAC3/NcoR2; in experiment [1]) was greater than 6.00 in each case.

For `Nc1cc(F)ccc1NC(=O)c1ccc2c(cnn2CC2CC2)c1` [Compound A12], the pIC50 was greater than 6.00 against HDAC3/NcoR2 and less than 4.70 in experiment [1].

As for `Cc1ccc(Cn2ncc3cc(C(=O)Nc4ccc(F)cc4N)ccc32)c(C)n1` [Compound A8], the figures for the pIC50 (against HDAC3/NcoR2; in experiment [1]) were greater than 6.00 and 5.30 to 6.00, respectively.

Turning to `Cc1ccc(Cn2cc3cc(C(=O)Nc4ccccc4N)ccc3n2)c(C)n1` [Compound A15], the negative-log IC50 (pIC50) (against HDAC3/NcoR2; in experiment [1]) was greater than 6.00 in each case.

Turning to `Nc1ccccc1NC(=O)c1ccc2c(cnn2Cc2cncc(F)c2)c1` [Compound A4, N-(2-aminophenyl)-1-((5-fluoropyridin-3-yl)methyl)-1H-indazole-5-carboxamide], the pIC50 (against HDAC3/NcoR2; in experiment [1]) was greater than 6.00 throughout.

Turning to `Cc1ccc(Cn2ncc3cc(C(=O)Nc4ccccc4N)ccc32)c(C)n1` [Compound A5], the pIC50 (against HDAC3/NcoR2; in experiment [1]) was greater than 6.00 each time.

`Nc1ccccc1NC(=O)c1ccc2nn(Cc3cccnc3)cc2c1` [Compound A13]: the pIC50 (against HDAC3/NcoR2; in experiment [1]) was greater than 6.00 throughout.

Regarding `Nc1ccccc1NC(=O)c1ccc2c(cnn2Cc2ccccc2)c1` [Compound A2], the pIC50 (on HDAC3/NcoR2; in experiment [1]) was greater than 6.00 throughout.
